{"source": "patent EP2948433B1", "about": "“ATGLISTATIN AS LIPASE INHIBITOR” (Technische Universität Graz, priority 2013, dated 2014)", "target": "T1, purified bovine LPL (Bos taurus, UniProt P11151)", "T1 construct": "purchased Sigma", "T1 sequence (P11151 29-478)": "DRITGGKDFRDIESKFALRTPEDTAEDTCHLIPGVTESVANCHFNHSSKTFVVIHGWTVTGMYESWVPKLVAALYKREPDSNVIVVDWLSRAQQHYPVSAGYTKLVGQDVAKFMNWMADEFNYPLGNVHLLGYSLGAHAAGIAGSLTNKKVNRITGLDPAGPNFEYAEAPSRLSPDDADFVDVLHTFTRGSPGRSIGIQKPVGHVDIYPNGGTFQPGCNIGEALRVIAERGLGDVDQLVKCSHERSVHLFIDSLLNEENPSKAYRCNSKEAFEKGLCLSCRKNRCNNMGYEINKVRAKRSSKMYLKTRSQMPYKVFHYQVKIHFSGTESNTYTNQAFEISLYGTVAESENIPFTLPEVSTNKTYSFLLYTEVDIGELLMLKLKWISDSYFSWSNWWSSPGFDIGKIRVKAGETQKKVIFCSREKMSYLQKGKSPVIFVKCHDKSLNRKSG", "experiment": "Lipoprotein lipase activity, purified enzyme, triolein substrate", "format": "biochemical", "details": "Fig. 2D", "method": "• Figure 1. Structure of compounds 1 to 3 (reference) and compound 4 (atglistatin) and effect on ATGL activity. For determination of lipase activity, lysates of E. coli overexpressing recombinant strep-tagged ATGL and CGI-58 were incubated with a substrate containing radiolabeled [9,10-3H(N)]-triolein. Subsequently, FA were extracted and quantified by liquid scintillation counting. Lysates of cells expressing empty vector were set as blank. Inhibitors were solubilized in DMSO and added at the indicated concentrations. DMSO alone was used as negative control. (A) Structure and IC50 values of compounds 1-4. (B) Dose-dependent inhibition of ATGL in the presence of compound 3 and 4. […] (C) Lineweaver-Burk plots for kinetic analysis of ATGL inhibition. Experiments were performed at varying concentrations of substrate (0.05 - 3 mM) in presence and absence of compound 4 (Atglistatin). […] Lipase activity of ATGL, HSL, lipoprotein lipase, and pancreatic lipase was determined using triolein as substrate. MGL activity was detected in the presence of rac-(1,3)-monooleoylglycerol as substrate. […] The release of FA (A) and glycerol (B) in the media was determined using commercial kits. […] At the indicated timepoints blood was taken retroorbitally and plasma parameters were measured using commercial kits. […] 8 h after gavage blood was taken retroorbitally and plasma parameters were measured using commercial kits. […]"}
{"compound": "CN(C)C(=O)Nc1cccc(-c2ccc(N(C)C)cc2)c1", "note": "[Atglistatin, atglistatin]", "values": [{"measurement": "effect on lipoprotein lipase", "value": "only minor effects"}]}
